# Test results as given in patent US6979740B2, “Process for preparation of ring-substituted 8-aminoquinoline analogs as antimalarial agents” (National Institute of Pharmaceutical Education and Research, priority 2003, dated 2005).
# “Also recorded” adds a separate entry of the source.
# Columns and labels:
# [1] = tested on: Plasmodium berghei (sensitive strain); test: Blood schizontocidal activity against Plasmodium berghei infection in mice; format: in vivo; settings: P. berghei infected mice, oral, 4 doses D0 to D+3, suppressive = parasitaemia suppressed on D+4 and D+7, curative = cleared up to 28 days
# Experimental: (§1) Blood schizontocidal activity evaluation of potential antimalarial compounds against Plasmodium berghei (sensitive strain) and P. yoelii nigeriensis (resistant strain) infection in mice.
# (§2) Test Procedure: On day ‘0’, groups of 6 mice each were inoculated, intraperitoneally, with 1×10^7 infected-erythrocytes, from a donor mouse. Four hours later, mice were administered test compounds/chloroquine primaquine/vehicle, orally. A total of 4 doses were given on days D‘0’, D+1, D+2, and D+3. The tail blood smears were made on day D+4 and D+7, stained with Geimsa, and examined microscopically. […] The results of blood-schizontocidal activities for the synthesized compounds are given below in Table 1.
# Mastomys coucha = test: In vivo methemoglobin (MetHb) toxicity in Mastomys coucha; settings: for (%) Methemoglobin (MetHb) Increase: Mastomys coucha, blood 4 h after administration
# Experimental: The protocol used is as follows: In vivo MetHb-inducing properties estimation was carried out in Mastomys coucha, a rapid rodent animal model using protocols reported earlier (Srivastava, P., Singh, S., Jain, G. K., Puri, S. K., Pandey, V. C. Ecotox. Environ. Safety. 2000, 45, 236-239). Briefly; six animals per group of both sexes, 2-3 months old and body weight between 40-50 g were used for the present investigation. Drug was administered intraperitoneally (ip) or orally at various dosage for single day/three consecutive days. Primaquine is used as the standard drug for the test. It is known that primaquine is readily absorbed from the gastro-intestinal tract and peak plasma concentration reaches within 3 h and falls within an apparent elimination half time of 6 h. Keeping the above pharmacokinetic profile in mind, the blood samples were collected after 4 h of drug administration and % increase in MetHb was calculated.
# P. falciparum = test: In vitro antimalarial activity against P. falciparum; format: cell-based
# Experimental: Protocol: Different drug dilutions [test compounds and chloroquine (positive control)] were prepared in complete RPMI (medium RPMI 1640+10% AB^+ human serum; CRPMI). Fifty μL of each dilution was transferred to the respective well of a microtiter plate in triplicates. Parasitized erythrocytes (PE; mainly rings; 4% parasitaemia; 5% hematokrit) were added to each well. Volume in each well was made up to 200 μL with CRPMI. The plates were incubated at 37° C. in a candle jar. After 24-48 h of incubation, thin smears from each well were made and stained with Giemsa. The number of PE/10,000 cells was counted. […] Using non-linear regression analysis, the IC50 of the test compounds was then calculated.
# [2] = cited from earlier work
# [3] = tested on: P. yoelii nigeriensis (multidrug resistant strain); test: Blood schizontocidal activity against chloroquine and mefloquine drug-resistant P. yoelii nigeriensis in mice; format: in vivo; settings: oral, 4 doses, listed as R=H, R1=H, R2=C(CH3)3, R3=H
# Experimental: as §1, §2
# Swiss mice = test: Acute toxicity studies in Swiss mice; format: in vivo
# Experimental: A group of ten mice with equal ratio of male and female were subjected to a single dose of 5, 50, 150 and 450 mg/kg.
structure (smiles),measurement,setting,value
"CCCCCCCCOc1c(OC)cc(NC(C)CCCN)c2nc(C(C)(C)C)cc(CC)c12 (stereo not shown) [Example 55, N^8-(4-Amino-1-methylbutyl)-2-tert-butyl-4-ethyl-6-methoxy-5-octoxy-8-quinolin-amine]",Biological activity at (mg/kg/days × 4),[1],Curative at 100 mg/kg
"COc1cc(NC(C)CCCN)c2nc(C3CCCC3)ccc2c1C1CCCC1 (stereo not shown) [Example 48, N^8-(4-Amino-1-methylbutyl)-2,5-dicyclopentyl-6-methoxy-8-quinolinamine]",Biological activity at (mg/kg/days × 4),[1],Inactive at 100 mg/kg
"COc1cc(NC(C)CCCN)c2ncccc2c1C(C)C (stereo not shown) [Example 46, N^8-(4-Amino-1-methylbutyl)-5-isopropyl-6-methoxy-8-quinolinamine]",Biological activity at (mg/kg/days × 4),[1],Inactive at 100 mg/kg
"COc1cc(NC(C)CCCN)c2nc(C(C)C)ccc2c1C(C)C (stereo not shown) [Example 49, N^8-(4-Amino-1-methylbutyl)-2,5-diisopropyl-6-methoxy-8-quinolinamine]",Biological activity at (mg/kg/days × 4),[1],Inactive at 100 mg/kg
"COc1cc(NC(C)CCCN)c2ncccc2c1 (stereo not shown) [Primaquine, N^8-(4-amino-1-methylbutyl)-6-methoxy-8-quinolinamine, reference compound]",(%) Methemoglobin (MetHb) Increase,Mastomys coucha; 15 mg/kg/day x 4 days (ip),3.38%
same,(%) Methemoglobin (MetHb) Increase,Mastomys coucha; 15 mg/kg/day x 4 days (oral),3.57%
same,(%) Methemoglobin (MetHb) Increase,Mastomys coucha; 50 mg/kg (single dose) (ip),3.38%
same,(%) Methemoglobin (MetHb) Increase,Mastomys coucha; 50 mg/kg (single dose) (oral),2.58%
same,P. falciparum (IC50),"P. falciparum; parasitized erythrocytes, 24-48 h incubation",Not active
same,time to peak plasma concentration,"[2]; absorbed from the gastro-intestinal tract, known property",≤ 3 h
same,half-life,[2]; known property of the drug,4 to 6 h
same,apparent elimination half time,[2]; known property,6 h
"CCCCCOc1c(OC)cc(NC(C)CCCN)c2nc(C(C)(C)C)cc(CC)c12 (stereo not shown) [Example 54, N^8-(4-Amino-1-methylbutyl)-2-tert-butyl-4-ethyl-6-methoxy-5-pentoxy-8-quinolin-amine]",Biological activity at (mg/kg/days × 4),[1],Curative at 100 mg/kg
"COc1cc(NC(C)CCCN)c2nc(C(C)(C)C)ccc2c1 (stereo not shown) [Example 43, N^8-(4-Amino-1-methylbutyl)-2-tert-butyl-6-methoxy-8-quinolinamine]",Biological activity at (mg/kg/days × 4),[3],Curative at 100 mg/kg; also recorded: Curative at 50 mg/kg; also recorded: Curative at 25 mg/kg; also recorded: Suppressive at 10 mg/kg
same,(%) Methemoglobin (MetHb) Increase,Mastomys coucha; 15 mg/kg/day x 4 days (ip),0%
same,(%) Methemoglobin (MetHb) Increase,Mastomys coucha; 15 mg/kg/day x 4 days (oral),0%
same,(%) Methemoglobin (MetHb) Increase,Mastomys coucha; 50 mg/kg (single dose) (ip),0%
same,(%) Methemoglobin (MetHb) Increase,Mastomys coucha; 50 mg/kg (single dose) (oral),0%
same,methemoglobin (MetHb) toxicity (result in words),Mastomys coucha; in vivo,completely devoid of this toxic manifestation in vivo
same,acute toxicity (result in words),Swiss mice; single dose,completely safe at 50 mg/kg
same,% Mortality Female,Swiss mice; single dose 5 mg/kg,0%
same,% Mortality Male,Swiss mice; single dose 5 mg/kg,0%
same,% Mortality Total,Swiss mice; single dose 5 mg/kg,0%
same,% Mortality Female,Swiss mice; single dose 50 mg/kg,0%
same,% Mortality Male,Swiss mice; single dose 50 mg/kg,0%
same,% Mortality Total,Swiss mice; single dose 50 mg/kg,0%
same,% Mortality Female,Swiss mice; single dose 150 mg/kg,0%
same,% Mortality Male,Swiss mice; single dose 150 mg/kg,0%
same,% Mortality Total,Swiss mice; single dose 150 mg/kg,0%
same,% Mortality Female,Swiss mice; single dose 450 mg/kg,0%
same,% Mortality Male,Swiss mice; single dose 450 mg/kg,0%
same,% Mortality Total,Swiss mice; single dose 450 mg/kg,0%
same,IC50,"P. falciparum; Plasmodium falciparum, Erythrocyte, read-out: P. falciparum (IC50)",0.0391 µg/mL
same,Biological activity at (mg/kg/days × 4),[1]; listed as 1,curative at a dose of 10 mg/kg
same,Biological activity at (mg/kg/days × 4),"[1]; listed as R=H, R1=H, R2=C(CH3)3, R3=H",Curative at 10 mg/kg
"COc1cc(NC(C)CCCN)c2ncccc2c1C1CCCCC1 (stereo not shown) [Example 47, N^8-(4-Amino-1-methylbutyl)-5-cyclohexyl-6-methoxy-8-quinolinamine]",Biological activity at (mg/kg/days × 4),[1],Inactive at 100 mg/kg
"COc1cc(NCCC(C)CN)c2nc(C(C)(C)C)cc(C)c2c1OC (stereo not shown) [Example 56, N^8-(4-Amino-3-methylbutyl)-2-tert-butyl-5,6-methoxy-4-methyl-8-quinolinamine]",Biological activity at (mg/kg/days × 4),[1],Curative at 100 mg/kg
"COc1cc(NC(C)CCCN)c2nc(C34CC5CC(CC(C5)C3)C4)ccc2c1 (stereo not shown) [Example 45, N^8-[4-Amino-1-methylbutyl)-2-adamantyl-6-methoxy-8-quinolinamine]",Biological activity at (mg/kg/days × 4),[1],Inactive at 100 mg/kg
"COc1cc(NC(C)CCCN)c2nc(C3CCCCC3)ccc2c1C1CCCCC1 (stereo not shown) [Example 50, N^8-(4-Amino-1-methylbutyl)-2,5-dicyclohexyl-6-methoxy-8-quinolinamine]",Biological activity at (mg/kg/days × 4),[1],Inactive at 100 mg/kg
"COc1cc(NC(C)CCCN)c2nc(C(C)(C)C)ccc2c1OC (stereo not shown) [Example 51, N^8-(4-Amino-1-methylbutyl)-2-tert-butyl-5,6-dimethoxy-8-quinolinamine]",Biological activity at (mg/kg/days × 4),[1],Inactive at 100 mg/kg
"COc1cc(NC(C)CCCNC(=O)[C@H](C)N)c2nc(C(C)(C)C)ccc2c1 (stereo partly drawn) [Example 64, N^1-[4-(2-tert-Butyl-6-methoxy-8-quinolylamino)pentyl]-(2S)-2-aminopropanamide]",Biological activity at (mg/kg/days × 4),[1]; listed as 18,suppressive activity at 10 mg/kg
same,Biological activity at (mg/kg/days × 4),"[1]; listed as R=H, R1=H, R2=C(CH3)3, R3=S-(Ala)",Suppressive at 10 mg/kg
"COc1cc(NC(C)CCCNC(=O)[C@@H](N)CCCN)c2nc(C(C)(C)C)ccc2c1 (stereo partly drawn) [Example 61, N^1-[4-(2-tert-Butyl-6-methoxy-8-quinolylamino)pentyl]-(2S)-2,5-diaminopentamide]",Biological activity at (mg/kg/days × 4),[1],Curative at 100 mg/kg
"COc1cc(NC(C)CCCN)c2ncccc2c1C1CCCC1 (stereo not shown) [Example 44, N^8-(4-Amino-1-methylbutyl)-5-cyclopentyl-6-methoxy-8-quinolinamine]",Biological activity at (mg/kg/days × 4),[1],Inactive at 100 mg/kg
"COc1cc(NC(C)CCCNC(=O)[C@@H](N)CCCCN)c2nc(C(C)(C)C)ccc2c1 (stereo partly drawn) [Example 63, N^1-[4-(2-tert-Butyl-6-methoxy-8-quinolylamino)pentyl]-(2S)-2-6-diaminohexanamide]",Biological activity at (mg/kg/days × 4),[1]; listed as 17,suppressive activity at 10 mg/kg
same,Biological activity at (mg/kg/days × 4),"[1]; listed as R=H, R1=H, R2=C(CH3)3, R3=S-(Lys)",Suppressive at 10 mg/kg
